One test concerns HT-29 cells. Put plainly: Necrosis assay (TNF-α/Smac mimetic/z-VAD induced necrosis, cell viability by ATP level). The note with it: HT-29, TNF-α + Smac mimetic + z-VAD, 24 hrs, ATP level; values given as ranges in nM; read-out: EC50 (inhibition of necrosis in HT-29 cells). The class given is cell-based. The procedure:
HT-29 cells were cultured in McCoy's 5 A culture medium (Invitrogen). On day one, HT-29 cells were plated in 96-well assay plates at density of 2,500-3,500 cells per well. On day two, necrosis were induced by adding 20 ng/ml TNF-α (T), 100 nM Smac mimetic (S), and […] z-VAD (Z). At the same time, […] compound from a chemical library of ˜200,000 compounds was delivered into each well. After 24 hrs treatment, cell viability was determined by measuring ATP level using the CellTiter-Glo Luminescent Cell Viability Assay kit. A CellTiter-Glo Assay (Promega) was performed according to the manufacturer's instructions Luminescence was recorded with a PerkinElmer EnSpire Multimode Plate Reader. Survived cells were normalized to those cells treated with DMSO. Nec-1 was used as a positive control for screening necrosis inhibitors. Data are represented as mean±standard deviation of duplicates
Dose-dependent inhibition of necrosis by the compounds in HT-29 cells were determined by measuring ATP levels as described above.
As to `CCC(C)(C)C(=O)N(C)Cc1ccc(Cl)cc1F` [Compound 27, N-(4-chloro-2-fluorobenzyl)-N,2,2-trimethylbutanamide], the concentration giving a half-maximal response (EC50) (commonly the concentration at which the effect is half-maximal) is 1 to 1000 nM.
Still for that read-out and setting: next, `CCC(C)(C)C(=O)N(O)Cc1cc(F)cc(F)c1F` [Compound 93, N-hydroxy-2,2-dimethyl-N-(2,3,5-trifluorobenzyl)butanamide]: 1 to 1000 nM; `CCC(C)(C)C(=O)N(C)Cc1cc(F)cc(F)c1` [Compound 26, N-(3,5-difluorobenzyl)-N,2,2-trimethylbutanamide]: 1 to 1000 nM; `CCC(C)(C)C(=O)N(O)Cc1ccc(F)cc1` [Compound 94, N-(4-fluorobenzyl)-N-hydroxy-2,2-dimethylbutanamide]: 1 to 1000 nM.
Same read-out and setting: with `CCC(C)(C)C(=O)N(C)Cc1ccc(F)cc1F` [Compound 24, N-(2,4-difluorobenzyl)-N,2,2-trimethylbutanamide] the figure was 1 to 1000 nM; with `CCC(C)(C)C(=O)N(C)Cc1ccc(F)c(F)c1` [Compound 91, N-(3,4-difluorobenzyl)-N,2,2-trimethylbutanamide], 1 to 1000 nM.
On the same count and under the same terms, with `CCC(C)(C)C(=O)N(C)Cc1ccco1` [Compound 43, N-(furan-2-ylmethyl)-N,2,2-trimethylbutanamide] the figure was 1 to 1000 nM; with `CCC(C)(C)C(=O)N(Cc1ccccc1)OC(C)=O` [Compound S3, N-acetoxy-N-benzyl-2,2-dimethylbutanamide], 1 to 1000 nM.
With `CCC(C)(C)C(=O)N(C)Cc1ccccc1` [Compound 90, N-benzyl-N,2,2-trimethylbutanamide], the half-maximal effective concentration (EC50) was 1 to 1000 nM.
Same read-out and setting: next, `CCC(C)(C)C(=O)N(C)Cc1ccc(OC)cc1F` [Compound 28, N-(2-fluoro-4-methoxybenzyl)-N,2,2-trimethylbutanamide]: 1 to 1000 nM; `CCC(C)(C)C(=O)N(O)Cc1ccc(F)c(F)c1F` [Compound 97, N-hydroxy-2,2-dimethyl-N-(2,3,4-trifluorobenzyl)butanamide]: 1 to 1000 nM.
The same measure, in the same setting: with `CCC(C)(C)C(=O)N(C)Cc1ccc(C)s1` [Compound 42, N,2,2-trimethyl-N-((5-methylthiophen-2-yl)methyl)butanamide] the figure was 1 to 1000 nM.
As for `CC(F)(F)C(C)(C)C(=O)N(O)Cc1ccccc1` [Compound S6, N-benzyl-3,3-difluoro-N-hydroxy-2,2-dimethylbutanamide], the concentration for a half-maximal effect (EC50) is 1 to 1000 nM.

Staying with this test, now noted: Homo sapiens, HT-29, 24 h, HT-29, TNF-α + Smac mimetic + z-VAD, 24 hrs, ATP level; values given as ranges in uM; read-out: EC50 (inhibition of necrosis in HT-29 cells).
`CCC(C)(C)C(=O)N(O)Cc1cccs1` [Compound 136]: the half-maximal effective concentration (EC50) was 1000 to 100000 nM.
Consider `CON(Cc1ccc(F)cc1)C(=O)C(C)(C)C(C)(F)F` [Compound S15], for which the EC50 fell in the range of 1000 to 100000 nM.
For `CN(Cc1ccccc1F)C(=O)NC1CCCCC1` [Compound 113, 3-cyclohexyl-1-(2-fluorobenzyl)-1-methylurea], the EC50 was 1000 to 100000 nM.
Same read-out and setting: next, `CCC(C)(C)C(=O)N(O)C(CO)c1ccccc1` (centres unmarked) [Compound 150]: 1000 to 100000 nM; `CN(Cc1cc(F)c(F)c(F)c1)C(=O)c1c(Cl)cccc1Cl` [Compound 129, 2,6-dichloro-N-methyl-N-(3,4,5-trifluorobenzyl)benzamide]: 1000 to 100000 nM; `CN(Cc1cc(F)cc(F)c1F)C(=O)C1(C(F)(F)F)CCCC1` [Compound 86, N-methyl-N-(2,3,5-trifluorobenzyl)-1-(trifluoromethyl)cyclopentanecarboxamide]: 1000 to 100000 nM.
Still for that read-out and setting: with `CCC(C)(C)C(=O)N(C)Cc1cccc(O)c1` [Compound 21, N-(3-hydroxybenzyl)-N,2,2-trimethylbutanamide] the figure was 1000 to 100000 nM; with `CN(Cc1ccccc1F)C(=O)CC(C)(C)C` [Compound 59, N-(2-fluorobenzyl)-N,3,3-trimethylbutanamide], 1000 to 10000 nM.
Turning to `CCC1CCCCN1C(=O)N(C)Cc1cc(F)cc(F)c1F` (centres unmarked) [Compound 116, 2-ethyl-N-methyl-N-(2,3,5-trifluorobenzyl)piperidine-1-carboxamide], the EC50 lay in the range of 1000 to 100000 nM.
The same measure, in the same setting: with `CCC(C)(C)C(=O)NCc1ccc(F)cc1F` [Compound 7, N-(2,4-difluorobenzyl)-2,2-dimethylbutanamide] the figure was 1000 to 10000 nM; with `CCN(Cc1ccc(F)cc1F)C(=O)C(C)(C)CC` [Compound 29, N-(2,4-difluorobenzyl)-N-ethyl-2,2-dimethylbutanamide], 1000 to 10000 nM.
Same read-out and setting: next, `CCC(C)(C)C(=O)N(C)Cc1cccnc1` [Compound 35, N,2,2-trimethyl-N-(pyridin-3-ylmethyl)butanamide]: 1000 to 10000 nM; `CON(Cc1cc(F)c(F)cc1F)C(=O)C(C)(C)C(C)(F)F` [Compound S18]: 1000 to 100000 nM.
Turning to `CCC(C)(C)C(=O)N(C)Cc1ccc2ccccc2c1` [Compound 46, N,2,2-trimethyl-N-(naphthalen-2-ylmethyl)butanamide], the concentration for a half-maximal effect (EC50) lay in the range of 1000 to 100000 nM.
Same read-out and setting: next, `C=CC(C)(C)C(=O)N(C)Cc1ccccc1F` [Compound 147]: 1000 to 100000 nM; `CCC(C)(C)C(=O)N(C)Cc1cccc(C(=O)OC)c1` [Compound 23, methyl 3-((N,2,2-trimethylbutanamido)methyl)benzoate]: 1000 to 100000 nM.
Still for that read-out and setting: with `CC(C)N(C(=O)N(C)Cc1cc(F)cc(F)c1F)C(C)C` [Compound 119, 1,1-diisopropyl-3-methyl-3-(2,3,5-trifluorobenzyl)urea] the figure was 1000 to 100000 nM; with `CCC(C)(C)C(=O)N(O)Cc1cn(C)cc1C` [Compound 144], 1000 to 100000 nM; with `CC(C)N(C)C(=O)N(C)Cc1cc(F)cc(F)c1F` [Compound 120, isopropyl-1,3-dimethyl-3-(2,3,5-trifluorobenzyl)urea], 1000 to 10000 nM.
Still for that read-out and setting: next, `CN(Cc1cc(F)cc(F)c1F)C(=O)C1(c2ccccc2)CC1` [Compound 82, N-methyl-1-phenyl-N-(2,3,5-trifluorobenzyl)cyclopropanecarboxamide]: 1000 to 100000 nM; `CC(F)(F)C(C)(C)C(=O)N(O)Cc1cc(F)cc(F)c1F` [Compound S14]: 1000 to 100000 nM.
As to `CCC(C)(C)C(=O)N[C@@H](CC(=O)NC)c1ccccc1` [Compound 101, (S)-2,2-dimethyl-N-(3-(methylamino)-3-oxo-1-phenylpropyl)butanamide], the half-maximal effective concentration (EC50) lay within 1000 to 100000 nM.
Same read-out and setting: next, `CCC(C)(C)C(=O)N[C@@H](CC(=O)N1CCCCC1)c1ccccc1` [Compound 105, (S)-2,2-dimethyl-N-(3-oxo-1-phenyl-3-(piperidin-1-yl)propyl)butanamide]: 1000 to 100000 nM; `CCC(C)(C)C(=O)N[C@@H](CC(=O)NCCOc1ccccc1)c1ccccc1` [Compound 126, (S)-2,2-dimethyl-N-(3-oxo-3-((2-phenoxyethyl)amino)-1-phenylpropyl)butanamide]: 1000 to 100000 nM; `COC(C)(C)C(=O)N(C)Cc1cc(F)cc(F)c1F` [Compound 67, 2-methoxy-N,2-dimethyl-N-(2,3,5-trifluorobenzyl)propanamide]: 1000 to 10000 nM.
The same measure, in the same setting: with `CCC(C)(C)C(=O)NCc1ccccc1C(F)(F)F` [Compound 4, 2,2-dimethyl-N-(2-(trifluoromethyl)benzyl)butanamide] the figure was 1000 to 10000 nM.
On the same count and under the same terms, next, `CCC(C)(C)C(=O)N[C@@H](CC(=O)NC1CCCCC1)c1ccccc1` [Compound 104, (S)—N-(3-(cyclohexylamino)-3-oxo-1-phenylpropyl)-2,2-dimethylbutanamide]: 1000 to 100000 nM.
With `CCC(C)(C)C(=O)N(O)CC1CCCCC1` [Compound 141], the concentration giving a half-maximal response (EC50) is 1000 to 100000 nM.
Still for that read-out and setting: with `CN(Cc1cc(F)c(F)c(F)c1)C(=O)C(C)(C)C` [Compound 69, N-methyl-N-(3,4,5-trifluorobenzyl)pivalamide] the figure was 1000 to 10000 nM; with `CCC(C)(C)C(=O)NCc1ccccc1F` [Compound 1, N-(2-fluorobenzyl)-2,2-dimethylbutanamide], 1000 to 10000 nM; with `CN(Cc1cc(F)cc(F)c1F)C(=O)C12CC3CC(CC(C3)C1)C2` [Compound 76, N-methyl-N-(2,3,5-trifluorobenzyl)adamantane-1-carboxamide], 1000 to 100000 nM.
On the same count and under the same terms, next, `CCC(C)(C)C(=O)N(C)Cc1ccncc1F` [Compound 36, N-((3-fluoropyridin-4-yl)methyl)-N,2,2-trimethylbutanamide]: 1000 to 100000 nM; `CCC(C)(C)C(=O)N(Cc1ccc(F)cc1F)OC` [Compound 131]: 1000 to 100000 nM; `CCC(C)(C)C(=O)N(O)CC1CCCC1` [Compound 139]: 1000 to 100000 nM.
For the compound `CCC1(C(=O)N(C)Cc2cc(F)c(F)c(F)c2)CCC1` [Compound 88, 1-ethyl-N-methyl-N-(3,4,5-trifluorobenzyl)cyclobutanecarboxamide], the 50% effective concentration (EC50) fell in the range of 1000 to 100000 nM.
The same measure, in the same setting: with `CCC(C)(C)C(=O)N(O)CC1CCCO1` (centres unmarked) [Compound 142] the figure was 1000 to 100000 nM.
Same read-out and setting: with `CCC(C)(C)C(=O)N(C)Cc1cnc(C)s1` [Compound 44, N,2,2-trimethyl-N-((2-methylthiazol-5-yl)methyl)butanamide] the figure was 1000 to 10000 nM; with `CCC(C)(C)C(=O)N(C)C1(c2ccccc2)CC1` [Compound 55, N,2,2-trimethyl-N-(1-phenylcyclopropyl)butanamide], 1000 to 100000 nM; with `CCC(C)(C)C(=O)N[C@@H](C(=O)N(C)C)c1ccccc1` [Compound 123, (R)—N-(2-(dimethylamino)-2-oxo-1-phenylethyl)-2,2-dimethylbutanamide], 1000 to 100000 nM.
Still for that read-out and setting: next, `CON(Cc1cc(F)c(F)c(F)c1)C(=O)C(C)(C)C(C)(F)F` [Compound S19]: 1000 to 100000 nM.

The values are drawn from patent US10682319B2, “Necrosis inhibitors” (National Institute of Biological Sciences, Beijing, priority 2014, dated 2020).
